Laboratory results as given in publication PMC6981960 (2019).
One block for each compound: values may come before it.

Legend:
[1] = test system: NP7 (DNA, aptamer) ATGCGGATCCCGCGCGGCCGGCCAGTGCGCGAAGCTTGCGC; assay: AuNP colorimetric aggregation assay; details: NaCl added to aggregate AuNPs (10 μL, printed 850 nM), aptamer 4 μM
[2] = test system: NP7 (DNA, aptamer) ATGCGGATCCCGCGCGGCCGGCCAGTGCGCGAAGCTTGCGC; assay: circular dichroism; details: 137 mM NaCl, 2.7 mM KCl; PBS pH 7.4, 25 °C; aptamer 2 μM; 4-n-NP 0, 100, 1000 nM; qualitative change near 250 nm

Structure (SMILES): CC1(C)S[C@@H]2[C@H](NC(=O)Cc3ccccc3)C(=O)N2[C@H]1C(=O)O
binding ([1]; penicillin G same amount as nonylphenol (200 nM stated)): no

Structure (SMILES): CCCCC(CC)COC(=O)c1ccccc1C(=O)OCC(CC)CCCC (centres unmarked)
binding ([1]; DEHP same amount as nonylphenol (200 nM stated)): no

Structure (SMILES): Oc1ccccc1
binding ([1]; phenol same amount as nonylphenol (200 nM stated)): no

Next, values leading:

binding ([1]; bisphenol A same amount as nonylphenol (200 nM stated)): weak
Structure (SMILES): CC(C)(c1ccc(O)cc1)c1ccc(O)cc1

binding [2]: yes
Structure (SMILES): CCCCCCCCCc1ccc(O)cc1
